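Cells were grown in 96-well plates and exposed to each compound for 48 hours at five concentrations; endpoints were interpolated linearly between bracketing concentrations, or set to the highest concentration if not reached. TGI: concentration producing complete growth inhibition.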
Columns and labels:
Assay in all cases: inhibition of tumour cell growth, NCI panel, 48 h
786-0 renal = test system: 786-0 renal
A498 renal = test system: A498 renal
A549 NSCLC = test system: A549 NSCLC
ACHN renal = test system: ACHN renal
BT-549 breast = test system: BT-549 breast
CAKI-1 renal = test system: CAKI-1 renal
CCRF-CEM leukemia = test system: CCRF-CEM leukemia
COLO 205 colon = test system: COLO 205 colon
DU-145 prostate = test system: DU-145 prostate
EKVX NSCLC = test system: EKVX NSCLC
HCC-2998 colon = test system: HCC-2998 colon
HCT-116 colon = test system: HCT-116 colon
HCT-15 colon = test system: HCT-15 colon
HL-60(TB) leukemia = test system: HL-60(TB) leukemia
HOP-62 NSCLC = test system: HOP-62 NSCLC
HOP-92 NSCLC = test system: HOP-92 NSCLC
HS 578T breast = test system: HS 578T breast
HT29 colon = test system: HT29 colon
IGROV1 ovarian = test system: IGROV1 ovarian
K-562 leukemia = test system: K-562 leukemia
KM12 colon = test system: KM12 colon
LOX IMVI melanoma = test system: LOX IMVI melanoma
M14 melanoma = test system: M14 melanoma
MALME-3M melanoma = test system: MALME-3M melanoma
MCF7 breast = test system: MCF7 breast
MDA-MB-231 breast = test system: MDA-MB-231 breast
MDA-MB-435 = test system: MDA-MB-435
MDA-N = test system: MDA-N
MOLT-4 leukemia = test system: MOLT-4 leukemia
NCI-H226 lung = test system: NCI-H226 lung
NCI-H23 lung = test system: NCI-H23 lung
NCI-H460 lung = test system: NCI-H460 lung
NCI-H522 lung = test system: NCI-H522 lung
NCI/ADR-RES ovarian = test system: NCI/ADR-RES ovarian
OVCAR-3 ovarian = test system: OVCAR-3 ovarian
OVCAR-4 ovarian = test system: OVCAR-4 ovarian
OVCAR-8 ovarian = test system: OVCAR-8 ovarian
PC-3 prostate = test system: PC-3 prostate
RPMI-8226 leukemia = test system: RPMI-8226 leukemia
RXF 393 renal = test system: RXF 393 renal
SF-268 CNS = test system: SF-268 CNS
SF-295 CNS = test system: SF-295 CNS
SF-539 CNS = test system: SF-539 CNS
SK-MEL-2 melanoma = test system: SK-MEL-2 melanoma
SK-MEL-28 melanoma = test system: SK-MEL-28 melanoma
SK-MEL-5 melanoma = test system: SK-MEL-5 melanoma
SK-OV-3 ovarian = test system: SK-OV-3 ovarian
SN12C renal = test system: SN12C renal
SNB-19 CNS = test system: SNB-19 CNS
SNB-75 CNS = test system: SNB-75 CNS
SR leukemia = test system: SR leukemia
SW-620 colon = test system: SW-620 colon
T-47D breast = test system: T-47D breast
U251 CNS = test system: U251 CNS
UACC-257 melanoma = test system: UACC-257 melanoma
UACC-62 melanoma = test system: UACC-62 melanoma
UO-31 renal = test system: UO-31 renal

`CC(=O)Nc1ccc(-c2nc3ccccc3s2)cc1I` was tested, and the TGI (786-0 renal) was 44.5 µM, the TGI (A498 renal) was 36.3 µM and the TGI (A549 NSCLC) was greater than 100 µM. For the same molecule, the TGI (ACHN renal) was greater than 100 µM, the TGI (BT-549 breast) was 81 µM and the TGI (CAKI-1 renal) was greater than 100 µM. For the same molecule, the TGI (CCRF-CEM leukemia) was greater than 100 µM, the TGI (COLO 205 colon) was greater than 100 µM and the TGI (DU-145 prostate) was greater than 51 µM. For the same molecule, the TGI (EKVX NSCLC) was 80.1 µM, the TGI (HCC-2998 colon) was greater than 100 µM and the TGI (HCT-116 colon) was 81 µM. It also gave a TGI (HCT-15 colon) greater than 100 µM, a TGI (HL-60(TB) leukemia) greater than 100 µM and a TGI (HOP-62 NSCLC) of 39 µM. The TGI (HOP-92 NSCLC) was greater than 88.9 µM, the TGI (HS 578T breast) was greater than 100 µM and the TGI (HT29 colon) was greater than 100 µM. For the same molecule, the TGI (IGROV1 ovarian) was 20 µM, the TGI (K-562 leukemia) was greater than 100 µM and the TGI (KM12 colon) was greater than 100 µM. For the same molecule, the TGI (LOX IMVI melanoma) was greater than 81.7 µM, the TGI (M14 melanoma) was greater than 87.7 µM and the TGI (MALME-3M melanoma) was greater than 94.2 µM. It also gave a TGI (MCF7 breast) greater than 59.5 µM, a TGI (MDA-MB-231 breast) greater than 65.1 µM and a TGI (MDA-MB-435) greater than 100 µM. For the same molecule, the TGI (MDA-N) was greater than 100 µM, the TGI (MOLT-4 leukemia) was greater than 100 µM and the TGI (NCI-H226 lung) was 59.4 µM. The TGI (NCI-H23 lung) was 51.4 µM, the TGI (NCI-H460 lung) was greater than 100 µM and the TGI (NCI-H522 lung) was greater than 100 µM. It also gave a TGI (NCI/ADR-RES ovarian) greater than 96.3 µM, a TGI (OVCAR-3 ovarian) of 32.4 µM and a TGI (OVCAR-4 ovarian) greater than 100 µM. It also gave a TGI (OVCAR-8 ovarian) of 37.7 µM, a TGI (PC-3 prostate) greater than 100 µM and a TGI (RPMI-8226 leukemia) greater than 100 µM. For the same molecule, the TGI (RXF 393 renal) was 37 µM, the TGI (SF-268 CNS) was 97.4 µM and the TGI (SF-295 CNS) was greater than 100 µM. It also gave a TGI (SF-539 CNS) of 55.6 µM, a TGI (SK-MEL-2 melanoma) greater than 100 µM and a TGI (SK-MEL-28 melanoma) greater than 100 µM. For the same molecule, the TGI (SK-MEL-5 melanoma) was greater than 100 µM, the TGI (SK-OV-3 ovarian) was 38.2 µM and the TGI (SN12C renal) was greater than 100 µM. It also gave a TGI (SNB-19 CNS) greater than 87.5 µM, a TGI (SNB-75 CNS) of 67.4 µM and a TGI (SR leukemia) greater than 100 µM. The TGI (SW-620 colon) was greater than 100 µM, the TGI (T-47D breast) was greater than 93.2 µM and the TGI (U251 CNS) was greater than 81.6 µM. It also gave a TGI (UACC-257 melanoma) greater than 100 µM, a TGI (UACC-62 melanoma) greater than 76.9 µM and a TGI (UO-31 renal) of 67.9 µM.

Source: PubChem BioAssay (NCI)
